Here are results for 38 molecules from publication PMC11855827, “High-Throughput Screening of Five Compound Libraries for Anthelmintic Activity and Toxicity Leads to the Discovery of Two Flavonoid Compounds” (International Journal of Molecular Sciences, 2025).

The subject of the test is C. elegans. The note with it: Table S2, C. elegans SS assay, 110 μM, averages of 4 data points.

SMILES strings stand for the structures.

As to `Cl.c1cc2c(c3c1CC1c4cc5c(cc4CCN1C3)OCO5)OCO2` (racemic) [(±)‐Stylopine (hydrochloride)], the “Percentage of motility inhibition 0 h” value stood at 0% and the “Percentage of motility inhibition 24 h” value is 3%.

Consider `O=c1cc(-c2ccc(O)c(O)c2)oc2c(C3OC(CO)C(O)C(O)C3OC3OC(CO)C(O)C(O)C3O)c(O)cc(O)c12` (stereo not drawn) [2"‐O‐beta‐L‐galactopyranosylorientin], for which the “Percentage of motility inhibition 0 h” value is listed as 7% and the “Percentage of motility inhibition 24 h” value was 0%.

Take `CC(C(O)c1ccc(O)cc1)N1CCC(Cc2ccccc2)CC1.CC(C(O)c1ccc(O)cc1)N1CCC(Cc2ccccc2)CC1.O=C(O)C(O)C(O)C(=O)O` (stereo not shown) [Ifenprodil (ta rtrate)]: the “Percentage of motility inhibition 0 h” value worked out at 12% and the “Percentage of motility inhibition 24 h” value was 15%.

In the case of `CO/N=C(\C(=O)N[C@@H]1C(=O)N2C(C(=O)[O-])=C(C[n+]3cccc4c3CCC4)CS[C@H]12)c1csc(N)n1.O=S(=O)(O)O` [Cefpirome (sulfate)], the “Percentage of motility inhibition 0 h” value was found to be 13% and the “Percentage of motility inhibition 24 h” value worked out at 0%.

On to `COc1c(/C=C/C(=O)c2ccc(O)cc2)ccc(O)c1CC=C(C)C` [Licochal cone C], for which the “Percentage of motility inhibition 0 h” value was determined as 0% and the “Percentage of motility inhibition 24 h” value worked out at 8%.

In the case of `C[C@@H]1O[C@@H](c2c(O)c([C@@H]3O[C@H](CO)[C@@H](O)[C@H](O)[C@H]3O)c3oc(-c4ccc(O)cc4)cc(=O)c3c2O)[C@H](O)[C@H](O)[C@H]1O` [Isoviolanthin], the “Percentage of motility inhibition 0 h” value was 21% and the “Percentage of motility inhibition 24 h” value worked out at 2%.

With `C/C1=C/CC[C@H](C)C(=O)C[C@@H](C(C)C)C(=O)C1` [Curdione], the “Percentage of motility inhibition 0 h” value is given as 7% and the “Percentage of motility inhibition 24 h” value was 22%.

`CCCN1C[C@H](C)[C@@H](O)[C@](C)(O)[C@@H](CC)OC(=O)[C@H](C)[C@@H](O[C@H]2C[C@@](C)(OC)[C@@H](O)[C@H](C)O2)[C@H](C)[C@@H](O[C@@H]2O[C@H](C)C[C@H](N(C)C)[C@H]2O)[C@](C)(O)C[C@H]1C` [Gamithromycin]: the “Percentage of motility inhibition 0 h” value turned out to be 37% and the “Percentage of motility inhibition 24 h” value worked out at 44%.

In the case of `N.N.N.O=C(O)CC(O)(CC(=O)O)C(=O)O` [Citric acid (triammonium)], the “Percentage of motility inhibition 0 h” value worked out at 8% and the “Percentage of motility inhibition 24 h” value was 0%.

`CC(/C=C/C=C(\C)C(=O)O[C@@H]1O[C@H](CO)[C@@H](O)[C@H](O)[C@H]1O)=C\C=C\C=C(C)\C=C\C=C(/C)C(=O)O[C@@H]1O[C@H](CO[C@@H]2O[C@H](CO)[C@@H](O)[C@H](O)[C@H]2O)[C@@H](O)[C@H](O)[C@H]1O` [Crocin II]: the “Percentage of motility inhibition 0 h” value is listed as 27% and the “Percentage of motility inhibition 24 h” value is 1%.

In the case of `CC1=CC(=O)C2(C(C)C)CC12` (stereo not shown) [Umbellulone], the “Percentage of motility inhibition 0 h” value was determined as 0% and the “Percentage of motility inhibition 24 h” value was 1%.

Regarding `NC(=O)c1cc[n+](CC2=C(C(=O)[O-])N3C(=O)[C@@H](NC(=O)[C@@H](c4ccccc4)S(=O)(=O)[O-])[C@H]3SC2)cc1.[Na+]` [Cefsulodin (sodium)], the “Percentage of motility inhibition 0 h” value is 17% and the “Percentage of motility inhibition 24 h” value is recorded as 6%.

On to `CC1=CC[C@@H](C(C)(C)O)CC1` [(-)-α-Terpineol], for which the “Percentage of motility inhibition 0 h” value is reported as 15% and the “Percentage of motility inhibition 24 h” value came out at 17%.

As for `CN1C2=C3N=c4ccccc4=C3CCN2C(=O)c2ccccc21.Cl` [Dehydroevodiamine (hydrochloride)], the “Percentage of motility inhibition 0 h” value was found to be 8% and the “Percentage of motility inhibition 24 h” value is given as 1%.

As to `O=C(O[C@@H]1Cc2c(O)cc(O)cc2O[C@@H]1c1cc(O)c(O)c(O)c1)c1cc(O)c(O)c(O)c1` [(‐)‐Epigalloca techin Gallate], the “Percentage of motility inhibition 0 h” value stood at 9% and the “Percentage of motility inhibition 24 h” value turned out to be 6%.

Regarding `CC(=O)[C@H]1CC[C@H]2[C@@H]3CC[C@H]4CC(=O)CC[C@]4(C)[C@H]3CC[C@]12C` [5a‐Pregnane‐3,20‐dione], the “Percentage of motility inhibition 0 h” value was 2% and the “Percentage of motility inhibition 24 h” value turned out to be 17%.

Consider `CC(C)=CCC[C@](C)(O)[C@H]1CC[C@]2(C)[C@@H]1[C@H](O)C[C@@H]1[C@@]3(C)CC[C@H](O[C@@H]4O[C@H](CO)[C@@H](O)[C@H](O)[C@H]4O[C@@H]4O[C@H](CO)[C@@H](O)[C@H](O)[C@H]4O)C(C)(C)[C@@H]3CC[C@]12C` [20(S)-Ginsenoside Rg3], for which the “Percentage of motility inhibition 0 h” value is 0% and the “Percentage of motility inhibition 24 h” value was found to be 0%.

On to `CC(C)CCC[C@@H](C)[C@H]1CC[C@H]2[C@@H]3C(=O)C=C4C[C@@H](O)CC[C@]4(C)[C@H]3CC[C@]12C` [7-Ketocholesterol], for which the “Percentage of motility inhibition 0 h” value amounted to 1% and the “Percentage of motility inhibition 24 h” value came out at 27%.

In the case of `C=C(CCC=C(C)C)[C@H]1CC[C@]2(C)[C@@H]1[C@H](O)C[C@@H]1[C@@]3(C)CC[C@H](O)C(C)(C)[C@@H]3[C@@H](O[C@@H]3O[C@H](CO)[C@@H](O)[C@H](O)[C@H]3O[C@@H]3O[C@@H](C)[C@H](O)[C@@H](O)[C@H]3O)C[C@]12C` [Ginsenoside Rg6], the “Percentage of motility inhibition 0 h” value came out at 1% and the “Percentage of motility inhibition 24 h” value stood at 4%.

For `Cl.O=C(O)c1cn(-c2ccc(F)cc2)c2cc(N3CCNCC3)c(F)cc2c1=O` [Sarafloxacin (hydrochloride)], the “Percentage of motility inhibition 0 h” value was found to be 32% and the “Percentage of motility inhibition 24 h” value was found to be 3%.

As to `CO/N=C(\C(=O)N[C@@H]1C(=O)N2C(C(=O)[O-])=C(COC(N)=O)CS[C@H]12)c1ccco1.[Na+]` [Cefuroxime (sodium)], the “Percentage of motility inhibition 0 h” value amounted to 19% and the “Percentage of motility inhibition 24 h” value was 17%.

For `COc1ccc2c(C)c3[n+](cc2c1OC)CCc1cc2c(cc1-3)OCO2.[Cl-]` [13‐Methylberberine (chloride)], the “Percentage of motility inhibition 0 h” value is 0% and the “Percentage of motility inhibition 24 h” value amounted to 0%.

Consider `COC[C@@]12CC[C@H](OC)[C@]34C([C@H]([C@H](OC)[C@H]13)[C@]1(O)[C@H]3[C@@H](OC(=O)c5ccccc5)[C@](O)(C[C@H]34)[C@@H](OC)[C@@H]1O)N(C)C2` [Benzoylhypaconine], for which the “Percentage of motility inhibition 0 h” value is listed as 5% and the “Percentage of motility inhibition 24 h” value worked out at 0%.

As for `Cl.c1ccc(CC2=NCCN2)cc1` [Tolazoline (hydrochloride)], the “Percentage of motility inhibition 0 h” value came out at 21% and the “Percentage of motility inhibition 24 h” value is 0%.

Regarding `NC(N)=NCCCC(N)C(=O)O` (racemic) [DL-Arginine], the “Percentage of motility inhibition 0 h” value is 4% and the “Percentage of motility inhibition 24 h” value was found to be 0%.

Consider `O=c1c2c3c(ccc2cc2n1CCc1cc4c(cc1-2)OCO4)OCO3` [8‐Oxocoptisine], for which the “Percentage of motility inhibition 0 h” value is given as 2% and the “Percentage of motility inhibition 24 h” value worked out at 30%.

For the molecule `O.O=C(O)CC(O)(CC(=O)O)C(=O)O` [Citric acid (monohydrate)], the “Percentage of motility inhibition 0 h” value turned out to be 63% and the “Percentage of motility inhibition 24 h” value was 32%.

As for `CC(=O)[C@H]1CC[C@H]2[C@@H]3CC=C4C[C@@H](O)CC[C@]4(C)[C@H]3CC[C@]12C` [Pregnenolone], the “Percentage of motility inhibition 0 h” value is on record as 11% and the “Percentage of motility inhibition 24 h” value was determined as 4%.

Regarding `O=C(/C=C\c1ccc(O)c(O)c1)N[C@@H](Cc1ccc(O)c(O)c1)C(=O)O` [Clovamide], the “Percentage of motility inhibition 0 h” value amounted to 2% and the “Percentage of motility inhibition 24 h” value came to 0%.

As to `CCOC(=O)c1c(C)n(C)c2ccc(O)cc12` [Mecarbinate], the “Percentage of motility inhibition 0 h” value was 38% and the “Percentage of motility inhibition 24 h” value came out at 36%.

For the molecule `CC1(C)[C@@H](O[C@H]2O[C@H](C(=O)O)[C@@H](O)[C@H](O)[C@H]2O[C@@H]2O[C@H](C(=O)O)[C@@H](O)[C@H](O)[C@H]2O)CC[C@]2(C)[C@H]3C(=O)C=C4[C@@H]5C[C@@](C)(C(=O)O)CC[C@]5(C)CC[C@@]4(C)[C@]3(C)CC[C@@H]12` [Ammonium glycyrrhizinate], the “Percentage of motility inhibition 0 h” value stood at 20% and the “Percentage of motility inhibition 24 h” value was found to be 11%.

With `COc1ccc(-c2oc3c(CC=C(C)C)c(O)cc(O)c3c(=O)c2O[C@@H]2O[C@@H](C)[C@H](O)[C@@H](O)[C@H]2O[C@@H]2O[C@@H](C)[C@H](O)[C@@H](O)[C@H]2O)cc1` [2''‐O‐Rhamnosylicariside II], the “Percentage of motility inhibition 0 h” value was determined as 0% and the “Percentage of motility inhibition 24 h” value was found to be 13%.

On to `Cn1nnc(-c2ccc(-c3ccc(N4C[C@H](COP(=O)(O)O)OC4=O)cc3F)cn2)n1` [Tedizolid (phosphate)], for which the “Percentage of motility inhibition 0 h” value is 10% and the “Percentage of motility inhibition 24 h” value was 12%.

As to `CC1(C)S[C@@H]2[C@H](NC(=O)COc3ccccc3)C(=O)N2[C@H]1C(=O)[O-].[K+]` [Penicillin V (Potassium)], the “Percentage of motility inhibition 0 h” value is 23% and the “Percentage of motility inhibition 24 h” value worked out at 24%.

Turning to `C[C@H](CCC(=O)NCC(=O)[O-])[C@H]1CC[C@H]2[C@@H]3[C@H](O)C[C@@H]4C[C@H](O)CC[C@]4(C)[C@H]3C[C@H](O)[C@]12C.[Na+]` [Glycocholic acid (sodium)], the “Percentage of motility inhibition 0 h” value was 0% and the “Percentage of motility inhibition 24 h” value stood at 0%.

On to `C[C@@H]1O[C@@H]1P(=O)([O-])[O-].[Ca+2]` [Fosfomycin (calcium)], for which the “Percentage of motility inhibition 0 h” value is listed as 4% and the “Percentage of motility inhibition 24 h” value stood at 0%.

Turning to `C/C=C/c1cc(OC)c(OC)cc1OC` [alpha-Asarone], the “Percentage of motility inhibition 0 h” value came out at 49% and the “Percentage of motility inhibition 24 h” value amounted to 29%.

Regarding `COc1ccc(-c2cc(=O)c3c(O)cc(O[C@@H]4O[C@H](CO)[C@@H](O)[C@H](O)[C@H]4O[C@@H]4O[C@@H](C)[C@H](O)[C@@H](O)[C@H]4O)cc3o2)cc1O` [Neodiosmin], the “Percentage of motility inhibition 0 h” value was found to be 14% and the “Percentage of motility inhibition 24 h” value came out at 6%.
